From publication PMC3827244, “An Ultrasensitive High Throughput Screen for DNA Methyltransferase 1-Targeted Molecular Probes” (PLoS ONE, 2013)

How the values were obtained:
[1] = target: T1, DNMT1 (amino acids 621–1616) (Homo sapiens, UniProt P26358); test: Concentration-dependence (IC50), endonuclease-coupled DNA methylation assay; assay type: biochemical; conditions: for IC50: 10 µM SAM, 20 nM oligonucleotide 8006, 2 nM DNMT1, 95% confidence interval in brackets
T1 construct: RFTS-lacking DNMT1, amino acids 621–1616; made in house
Procedure: IC50 values for each validated direct inhibitor were determined under identical assay conditions (10 µM SAM and 20 nM oligonucleotide 8006) using the endonuclease-coupled DNA methylation assay in triplicate (80 µl) in a 96 well format. Assays contained 0.8 U GlaI, 2 nM DNMT1 (amino acids 621–1616) and 0.94% DMSO with inhibitor concentration varied from 0 to 10 µM. FAM fluorescence was measured in a Biotek Neo plate reader over the course of 45 minutes. A control containing GlaI in the absence of DNMT1 was subtracted from each assay condition. Corrected assay traces were fitted in Prism and percent activity was determined by comparing to a DMSO containing control. IC50 values were determined by fitting the percent activity data using a unity Hill slope in Prism.

CD-DNMT3A/DNMT3L complex = target: T2, CD-DNMT3A/DNMT3L complex (Homo sapiens, UniProt Q9Y6K1); test: Compound selectivity, endonuclease-coupled DNA methylation assay; assay type: biochemical; conditions: 20 µM inhibitor; for Percent activity, DNMT3A/DNMT3L Complex: 20 nM methyltransferase, 0.25 mM SAM
T2 construct: CD-DNMT3A; amino acids 611–912; His tag (N); made in house; host or cells: Rosetta 2(DE3)pLysS (E. coli) for CD-DNMT3A
Procedure: (§1) Triplicate assays (100 µl) containing 0.25 mM SAM, 0.2 µM oligonucleotide 8006, 0.8 U GlaI, 20 nM methyltransferase, 20 µM inhibitor and 1% DMSO were conducted in 96 well plates. Following enzyme addition, assay plates were incubated at 37°C for 75 min and fluorescence was measured in a BioTek Neo plate reader. A control containing only GlaI was subtracted from each assay. […] Percent activity was determined by comparing product formation to a DMSO containing control assay.

[2] = target: T3, RFTS-containing DNMT1 (amino acids 351–1616) (Homo sapiens, UniProt P26358); test: as above; assay type: biochemical; conditions: 20 µM inhibitor, 20 nM methyltransferase, 0.25 mM SAM
T3 construct: RFTS-containing DNMT1, amino acids 351–1616; made in house
Procedure: as §1

M.SssI DNMT = target: T4, M.SssI DNMT (Spiroplasma monobiae, UniProt P15840); test: as above; assay type: biochemical, bacterial; conditions: 1.25 h; 20 µM inhibitor, 20 nM methyltransferase, 0.25 mM SAM; read-out: Percent activity, M.SssI DNMT
T4 construct: purchased New England Biolabs
Procedure: as §1, with “After identifying direct inhibitors of DNMT1 lacking the RFTS domain, inhibitor selectivity was assessed by examining inhibition of RFTS-containing DNMT1 (amino acids 351–1616), CD-DNMT3A/DNMT3L complex, and the bacterial cytosine methyltransferase from M. SssI (New England Biolabs) using the endonuclease-coupled DNA methylation assay. Triplicate” for “Triplicate”

DNMT1 = conditions: cited from earlier work
[3] = system: MCF-7 breast cancer cells; conditions: cited from earlier work
[4] = system: Rgs6−/− mouse embryonic fibroblasts; parameters: method as in PMID 23995786; conditions: murine Rgs6−/− mouse embryonic fibroblasts; cited from earlier work
HepG2 cells = system: HepG2 cells; parameters: method as in PMID 22939515; conditions: cited from earlier work

T1 sequence (P26358 621-1616): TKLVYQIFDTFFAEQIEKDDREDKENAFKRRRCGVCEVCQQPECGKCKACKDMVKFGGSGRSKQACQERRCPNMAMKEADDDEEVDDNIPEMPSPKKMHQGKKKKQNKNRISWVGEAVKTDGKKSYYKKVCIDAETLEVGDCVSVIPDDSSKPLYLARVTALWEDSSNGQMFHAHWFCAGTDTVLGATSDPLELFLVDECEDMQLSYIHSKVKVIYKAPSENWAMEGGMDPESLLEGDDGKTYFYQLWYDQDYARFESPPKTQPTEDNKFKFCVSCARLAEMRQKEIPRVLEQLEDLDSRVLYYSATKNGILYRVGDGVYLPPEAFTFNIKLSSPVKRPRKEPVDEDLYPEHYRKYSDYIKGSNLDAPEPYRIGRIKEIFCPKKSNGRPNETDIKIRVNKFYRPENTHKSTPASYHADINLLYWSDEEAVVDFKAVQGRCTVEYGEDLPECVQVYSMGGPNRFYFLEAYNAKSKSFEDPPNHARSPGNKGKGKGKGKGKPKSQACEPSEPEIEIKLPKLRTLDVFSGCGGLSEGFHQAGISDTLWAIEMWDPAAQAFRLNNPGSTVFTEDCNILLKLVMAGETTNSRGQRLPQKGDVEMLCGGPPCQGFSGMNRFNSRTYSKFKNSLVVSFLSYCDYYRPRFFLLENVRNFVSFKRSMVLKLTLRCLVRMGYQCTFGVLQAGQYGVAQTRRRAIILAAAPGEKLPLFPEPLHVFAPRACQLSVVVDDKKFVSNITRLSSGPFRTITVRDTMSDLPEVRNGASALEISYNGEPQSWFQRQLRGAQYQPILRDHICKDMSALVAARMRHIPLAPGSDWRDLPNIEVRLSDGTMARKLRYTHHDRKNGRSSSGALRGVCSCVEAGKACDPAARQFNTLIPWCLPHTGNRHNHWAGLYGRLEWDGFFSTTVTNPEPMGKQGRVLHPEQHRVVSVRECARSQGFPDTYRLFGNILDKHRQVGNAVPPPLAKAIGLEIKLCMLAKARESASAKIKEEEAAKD
T2 sequence (Q9Y6K1 611-912): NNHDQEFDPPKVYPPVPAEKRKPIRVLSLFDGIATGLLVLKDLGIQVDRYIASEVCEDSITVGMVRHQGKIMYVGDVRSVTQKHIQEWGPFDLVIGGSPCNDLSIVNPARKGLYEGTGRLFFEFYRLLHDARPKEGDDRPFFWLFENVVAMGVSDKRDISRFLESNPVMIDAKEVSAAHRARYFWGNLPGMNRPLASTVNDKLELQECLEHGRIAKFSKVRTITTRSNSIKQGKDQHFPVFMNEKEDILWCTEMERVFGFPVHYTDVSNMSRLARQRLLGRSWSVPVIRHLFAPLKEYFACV
T2 sequence (Q9UJW3 whole entry partner, the tested form may be a part): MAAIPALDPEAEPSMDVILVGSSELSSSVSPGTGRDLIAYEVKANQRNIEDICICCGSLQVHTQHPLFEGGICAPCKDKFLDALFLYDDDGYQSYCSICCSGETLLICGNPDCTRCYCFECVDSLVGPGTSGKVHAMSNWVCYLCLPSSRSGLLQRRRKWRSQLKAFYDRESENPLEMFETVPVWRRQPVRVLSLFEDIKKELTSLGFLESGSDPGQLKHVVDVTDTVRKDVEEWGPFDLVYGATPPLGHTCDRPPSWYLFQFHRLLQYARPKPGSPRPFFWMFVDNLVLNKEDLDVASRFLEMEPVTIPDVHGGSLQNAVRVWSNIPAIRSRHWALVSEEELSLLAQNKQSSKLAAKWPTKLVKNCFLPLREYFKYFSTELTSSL
T3 sequence (P26358 351-1616): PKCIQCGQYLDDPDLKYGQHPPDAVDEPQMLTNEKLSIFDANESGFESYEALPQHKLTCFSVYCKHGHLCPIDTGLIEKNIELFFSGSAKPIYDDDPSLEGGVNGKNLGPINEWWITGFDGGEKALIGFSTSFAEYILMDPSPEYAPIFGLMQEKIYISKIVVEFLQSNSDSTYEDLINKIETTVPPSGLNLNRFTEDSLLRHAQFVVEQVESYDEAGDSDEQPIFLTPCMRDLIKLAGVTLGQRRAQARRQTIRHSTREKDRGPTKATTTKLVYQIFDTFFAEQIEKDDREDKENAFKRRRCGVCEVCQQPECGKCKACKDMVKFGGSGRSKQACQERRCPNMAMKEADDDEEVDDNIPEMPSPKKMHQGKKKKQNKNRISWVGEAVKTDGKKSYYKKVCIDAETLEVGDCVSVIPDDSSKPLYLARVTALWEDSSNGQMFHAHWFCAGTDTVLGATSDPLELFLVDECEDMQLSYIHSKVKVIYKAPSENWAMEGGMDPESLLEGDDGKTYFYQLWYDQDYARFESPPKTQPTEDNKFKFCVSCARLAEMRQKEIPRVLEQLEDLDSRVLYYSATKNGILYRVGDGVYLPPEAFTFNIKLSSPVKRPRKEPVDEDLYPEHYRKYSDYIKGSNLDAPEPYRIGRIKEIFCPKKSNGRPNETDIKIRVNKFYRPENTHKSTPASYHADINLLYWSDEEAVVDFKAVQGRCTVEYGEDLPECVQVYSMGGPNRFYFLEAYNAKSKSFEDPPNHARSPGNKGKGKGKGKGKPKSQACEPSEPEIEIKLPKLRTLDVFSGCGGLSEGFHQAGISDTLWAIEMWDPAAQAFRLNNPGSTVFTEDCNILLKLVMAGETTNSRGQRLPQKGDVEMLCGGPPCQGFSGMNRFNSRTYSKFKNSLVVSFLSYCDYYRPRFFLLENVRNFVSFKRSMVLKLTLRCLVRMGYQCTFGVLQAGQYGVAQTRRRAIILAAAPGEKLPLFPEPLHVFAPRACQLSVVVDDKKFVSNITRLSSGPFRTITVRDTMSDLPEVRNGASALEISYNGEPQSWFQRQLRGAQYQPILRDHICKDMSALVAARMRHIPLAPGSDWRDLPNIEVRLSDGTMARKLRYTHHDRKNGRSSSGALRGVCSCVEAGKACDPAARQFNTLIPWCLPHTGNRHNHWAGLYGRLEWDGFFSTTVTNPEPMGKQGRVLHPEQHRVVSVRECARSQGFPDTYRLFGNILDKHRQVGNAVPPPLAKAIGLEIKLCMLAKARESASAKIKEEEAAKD
T4 sequence (P15840 whole entry): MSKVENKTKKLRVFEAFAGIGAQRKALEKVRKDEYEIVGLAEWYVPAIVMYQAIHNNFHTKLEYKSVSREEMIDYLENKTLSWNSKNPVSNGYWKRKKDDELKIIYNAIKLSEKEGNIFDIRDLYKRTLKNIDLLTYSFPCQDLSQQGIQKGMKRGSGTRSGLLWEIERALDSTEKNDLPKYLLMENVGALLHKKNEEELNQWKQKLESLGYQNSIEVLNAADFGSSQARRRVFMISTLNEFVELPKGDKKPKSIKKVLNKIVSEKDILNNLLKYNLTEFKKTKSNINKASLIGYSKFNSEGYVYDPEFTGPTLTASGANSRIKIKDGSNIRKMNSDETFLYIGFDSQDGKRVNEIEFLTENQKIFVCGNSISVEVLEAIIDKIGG

Structure (SMILES) | potency relative to alizarin (cmpd 26) ([1]; more potent than alizarin) | selectivity for DNMT1 over DNMT3A/DNMT3L (CD-DNMT3A/DNMT3L complex) | Percent activity, DNMT3A/DNMT3L Complex (CD-DNMT3A/DNMT3L complex) | Percent activity, RFTS-containing Dnmt1 [2] | remaining activity at 20 µM (M.SssI DNMT) | mechanism of inhibition (DNMT1) | expression of methylation-silenced genes [3] | DNMT1-dependent oncogenic transformation and apoptosis [4] | IC50 [1] | selectivity for DNMT1 versus DNMT3A/DNMT3L (in words) (CD-DNMT3A/DNMT3L complex) | levels of DNA methylation (HepG2 cells)
CC(=O)NCCc1ccc(O)c(-c2c(O)c(O)c3c(c2O)C(=O)c2c(cc(O)c(C(=O)O)c2C(=O)O)C3=O)c1 [Cmpd 40, Laccaic acid A] | ~5 fold | ~4 fold | 80±10% | 21±9% | 82 ± 10% | DNA-competitive inhibitor | reactivates expression of a set of methylation-silenced genes | reverses DNMT1-dependent oncogenic transformation and apoptosis |  |  | 
O=C(O)c1cc(O)c2c(c1)[C@@H]([C@H]1c3cc(C(=O)O)cc(O)c3C(=O)c3c(O[C@H]4O[C@H](CO)[C@@H](O)[C@H](O)[C@H]4O)cccc31)c1cccc(O[C@H]3O[C@H](CO)[C@@H](O)[C@H](O)[C@H]3O)c1C2=O [Cmpd 22] |  |  | 88±11% | 40±10% | 20 ± 5% |  |  |  | 470 nM |  | 
O=C(O)C(S)C(S)C(=O)O (stereo not drawn) [Cmpd 51] |  |  | 61±12% | 24±11% | 36 ± 7% |  |  |  |  |  | 
Oc1cc(Cl)ccc1Oc1ccc(Cl)cc1Cl [Cmpd 13, triclosan] |  |  | 23±10% | 25±8% | 25 ± 4% |  |  |  |  | nonselective | reduced the levels of DNA methylation
O=c1c(O)c(-c2ccc(O)c(O)c2)oc2c(O)c(O)cc(O)c12 [Cmpd 33] |  |  | 74±13% | 38±13% | 86 ± 9% |  |  |  |  |  | 
CC1/C=C/C=C/C=C/C=C/C=C/C=C/C=C/C(O[C@@H]2O[C@H](C)[C@H](O)[C@@H](O)[C@@H]2N)CC(O)C(C(=O)O)C(O)CC(=O)CC(O)CC(O)CC(O)CC(=O)CCCC(=O)CC(=O)OC1C(C)CC(C)C(O)CC(=O)c1ccc(N)cc1 (stereo partly drawn) [Cmpd 24] |  |  | 49±16% |  | 49 ± 12% |  |  |  | 400 nM |  | 
O=C(O)c1cc(O)c2c(c1)[C@@H]([C@@H]1c3cc(C(=O)O)cc(O)c3C(=O)c3c(O[C@H]4O[C@H](CO)[C@@H](O)[C@H](O)[C@H]4O)cccc31)c1cccc(O[C@H]3O[C@H](CO)[C@@H](O)[C@H](O)[C@H]3O)c1C2=O [Cmpd 36] |  |  | 83±15% | 30±12% | 40 ± 7% |  |  |  |  |  | 
O=C1c2ccccc2C(=O)c2c1ccc(O)c2O [Cmpd 26, alizarin] |  |  | 49±12% | 51±10% | 68 ± 11% |  |  |  |  | nonselective | 
CSc1nc2cc(Cl)c(Oc3cccc(Cl)c3Cl)cc2[nH]1 [Cmpd 29, triclabendazole] |  |  | 110±5% |  | 19 ± 6% |  |  |  |  | exhibited selectivity | 
